Blank lines part the entries; values can stand above or below the compound they belong to.
How the values were obtained:
[1] = Environmental stability (heat, acid, base); type: physicochemical
[2] = physchem; conditions: pH 3, aqueous buffer
[3] = biological target: Syk (Homo sapiens, UniProt P43405); conditions: DLBCL, CLL, and mantle cell lymphoma; cited from earlier work
[4] = Safety and pharmacokinetics, single dose studies in healthy subjects; type: in vivo, human

environmental instabilities (i.e. heat, acid, base) that require special handling [1]: no environmental instabilities
solubility [2]: 400 µg/mL
SMILES: C=CC(=O)Nc1cccc(Nc2nc(Nc3ccc(OCCOC)cc3)ncc2F)c1.O=S(=O)(O)c1ccccc1 [N-(3-(5-fluoro-2-(4-(2-methoxyethoxy)phenylamino)pyrimidin-4-ylamino)phenyl)acrylamide benzenesulfonic acid salt]

SMILES: COc1cc(Nc2ncc(F)c(Nc3ccc4c(n3)N(COP(=O)(O)O)C(=O)C(C)(C)O4)n2)cc(OC)c1OC [fostamatinib disodium]
clinical responses [3]: produced clinical responses

SMILES: C=CC(=O)Nc1cccc(Nc2nc(Nc3ccc(OCCOC)cc3)ncc2F)c1 [Compound 1, N-(3-(5-fluoro-2-(4-(2-methoxyethoxy)phenylamino)pyrimidin-4-ylamino)phenyl)acrylamide]
pharmacokinetics (PK) [4]: predictable pharmacokinetics
safety [4]: adequate safety
